#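 Following 48 hours of exposure in 96-well plates, responses at five concentrations were used to interpolate endpoints linearly. The concentration for 50% growth inhibition is given as GI50.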 Calls of active or inactive are those of the source. Rule as the data show it: active = GI50 up to about 1.1 µM and inactive = higher.
# Key:
# Assay in all cases: NCI anticancer screen, dose series, 48 h
# [1] = system: HOP-62
# [2] = system: HL-60
# [3] = system: OVCAR-3
# [4] = system: HCT-116
# [5] = system: M14
# [6] = system: MOLT-4
# [7] = system: NCI/ADR-RES
# [8] = system: SK-MEL-28
# [9] = system: HOP-92
# [10] = system: ACHN
# [11] = system: T47D
# [12] = system: MDA-MB-435
# [13] = system: DU-145
# [14] = system: SK-OV-3
# [15] = system: SW-620
# [16] = system: A549
# [17] = system: SN12C
# [18] = system: SK-MEL-2
# [19] = system: NCI-H23
# [20] = system: KM12
# [21] = system: HCC 2998
# [22] = system: MDA-N
# [23] = system: MCF7
# [24] = system: TK-10
# [25] = system: HT-29
# [26] = system: COLO 205
# [27] = system: CAKI-1
# [28] = system: SK-MEL-5
# [29] = system: MDA-MB-231
# [30] = system: SF-539
# [31] = system: UACC-257
# [32] = system: UO-31
# [33] = system: SF-295
# [34] = system: SNB-19
# [35] = system: 786-0
# [36] = system: U-251
# [37] = system: NCI-H226
# [38] = system: LOX IMVI
# [39] = system: PC-3
# [40] = system: OVCAR-5
# [41] = system: HCT-15
# [42] = system: OVCAR-8
# [43] = system: EKVX
# [44] = system: OVCAR-4
# [45] = system: IGROV-1
# [46] = system: NCI-H460
# [47] = system: SNB-75
# [48] = system: A498
# [49] = system: UACC-62
# [50] = system: RPMI-8226
# [51] = system: CCRF-CEM
# [52] = system: Hs-578T
# [53] = system: K562
# [54] = system: RXF 393
# [55] = system: SR
# [56] = system: SF-268
# [57] = system: NCI-H522
# [58] = system: Malme-3M
structure (smiles),measurement,setting,value
CCCCNC(=S)N/C=C1\C(=O)Oc2ccccc2C1=O,GI50,[1],80.2 µM (inactive)
same,GI50,[2],10 µM (inactive)
same,GI50,[3],> 100 µM (inactive)
same,GI50,[4],73.5 µM (inactive)
same,GI50,[5],76.6 µM (inactive)
same,GI50,[6],43.3 µM (inactive)
same,GI50,[7],> 100 µM (inactive)
same,GI50,[8],77.8 µM (inactive)
same,GI50,[9],> 100 µM (inactive)
same,GI50,[10],31.4 µM (inactive)
same,GI50,[11],81.5 µM (inactive)
same,GI50,[12],61 µM (inactive)
same,GI50,[13],99.3 µM (inactive)
same,GI50,[14],> 100 µM (inactive)
same,GI50,[15],41.7 µM (inactive)
same,GI50,[16],> 100 µM (inactive)
same,GI50,[17],68.5 µM (inactive)
same,GI50,[18],38.5 µM (inactive)
same,GI50,[19],88.5 µM (inactive)
same,GI50,[20],> 100 µM (inactive)
same,GI50,[21],68.7 µM (inactive)
same,GI50,[22],64 µM (inactive)
same,GI50,[23],> 100 µM (inactive)
same,GI50,[24],> 100 µM (inactive)
same,GI50,[25],> 100 µM (inactive)
same,GI50,[26],> 100 µM (inactive)
same,GI50,[27],26.1 µM (inactive)
same,GI50,[28],> 100 µM (inactive)
same,GI50,[29],73.8 µM (inactive)
same,GI50,[30],98.4 µM (inactive)
same,GI50,[31],> 100 µM (inactive)
same,GI50,[32],37.2 µM (inactive)
same,GI50,[33],> 100 µM (inactive)
same,GI50,[34],49.4 µM (inactive)
same,GI50,[35],> 100 µM (inactive)
same,GI50,[36],54 µM (inactive)
same,GI50,[37],> 100 µM (inactive)
same,GI50,[38],> 100 µM (inactive)
same,GI50,[39],92.5 µM (inactive)
same,GI50,[40],> 100 µM (inactive)
same,GI50,[41],48 µM
same,GI50,[42],42.4 µM (inactive)
same,GI50,[43],> 100 µM (inactive)
same,GI50,[44],74.5 µM (inactive)
same,GI50,[45],35.4 µM (inactive)
same,GI50,[46],64.1 µM (inactive)
same,GI50,[47],2.69 µM (inactive)
N=C1N(/N=C/c2ccccn2)/C(=N\c2ccccc2)C(=S)N1c1ccccc1,GI50,[48],19.4 µM (inactive)
same,GI50,[1],10.2 µM (inactive)
same,GI50,[2],1.85 µM (inactive)
same,GI50,[4],2.87 µM (inactive)
same,GI50,[6],> 100 µM (inactive)
same,GI50,[7],2.83 µM (inactive)
same,GI50,[8],11 µM (inactive)
same,GI50,[9],10.8 µM (inactive)
same,GI50,[10],2.55 µM (inactive)
same,GI50,[11],5.5 µM (inactive)
same,GI50,[49],1.17 µM (inactive)
same,GI50,[12],5.41 µM (inactive)
same,GI50,[50],> 100 µM (inactive)
same,GI50,[13],3.31 µM (inactive)
same,GI50,[14],16.6 µM (inactive)
same,GI50,[15],3.47 µM (inactive)
same,GI50,[16],5.51 µM (inactive)
same,GI50,[51],2.05 µM (inactive)
same,GI50,[17],5.31 µM (inactive)
same,GI50,[18],2.14 µM (inactive)
same,GI50,[52],11.5 µM (inactive)
same,GI50,[19],6.07 µM (inactive)
same,GI50,[20],4.01 µM (inactive)
same,GI50,[21],10.2 µM (inactive)
same,GI50,[22],3.56 µM (inactive)
same,GI50,[53],3.33 µM (inactive)
same,GI50,[24],11 µM (inactive)
same,GI50,[25],2.97 µM (inactive)
same,GI50,[54],3.15 µM (inactive)
same,GI50,[26],1.42 µM (inactive)
same,GI50,[55],> 100 µM (inactive)
same,GI50,[27],6.44 µM (inactive)
same,GI50,[56],5.12 µM (inactive)
same,GI50,[28],4.48 µM (inactive)
same,GI50,[29],6.7 µM (inactive)
same,GI50,[30],3.77 µM (inactive)
same,GI50,[31],9.27 µM (inactive)
same,GI50,[32],4.37 µM (inactive)
same,GI50,[33],5.81 µM (inactive)
same,GI50,[34],15.4 µM (inactive)
same,GI50,[57],1.92 µM (inactive)
same,GI50,[35],2.94 µM (inactive)
same,GI50,[36],8.18 µM (inactive)
same,GI50,[37],13.5 µM (inactive)
same,GI50,[38],2.22 µM (inactive)
same,GI50,[58],10.9 µM (inactive)
same,GI50,[39],3.57 µM (inactive)
same,GI50,[40],4.74 µM (inactive)
same,GI50,[41],2.54 µM
same,GI50,[42],3.6 µM (inactive)
same,GI50,[43],3.41 µM (inactive)
same,GI50,[44],11.7 µM (inactive)
same,GI50,[45],5.05 µM (inactive)
same,GI50,[46],4.15 µM (inactive)
same,GI50,[47],15.3 µM (inactive)
CN(Cc1cnc2nc(N)nc(N)c2n1)c1ccc(C(=O)NC(CCC(=O)NCC(P(=O)(O)O)P(=O)(O)O)C(=O)O)cc1 (stereo not given),GI50,[1],5.11 µM (inactive)
same,GI50,[3],23 µM (inactive)
same,GI50,[4],0.815 µM (active)
same,GI50,[5],6.01 µM (inactive)
same,GI50,[6],3.18 µM (inactive)
same,GI50,[7],35.5 µM (inactive)
same,GI50,[9],< 0.01 µM (active)
same,GI50,[10],3.57 µM (inactive)
same,GI50,[11],40 µM (inactive)
same,GI50,[49],4.41 µM (inactive)
same,GI50,[13],7.16 µM (inactive)
same,GI50,[14],15.7 µM (inactive)
same,GI50,[15],4.7 µM (inactive)
same,GI50,[16],4.99 µM (inactive)
same,GI50,[17],7.21 µM (inactive)
same,GI50,[18],> 100 µM (inactive)
same,GI50,[52],37.1 µM (inactive)
same,GI50,[22],4.97 µM (inactive)
same,GI50,[25],5.27 µM (inactive)
same,GI50,[26],> 100 µM (inactive)
same,GI50,[55],< 0.01 µM (active)
same,GI50,[56],6.11 µM (inactive)
same,GI50,[28],13.3 µM (inactive)
same,GI50,[29],> 100 µM (inactive)
same,GI50,[31],12.6 µM (inactive)
same,GI50,[33],0.706 µM (active)
same,GI50,[57],20.2 µM (inactive)
same,GI50,[35],81.1 µM (inactive)
same,GI50,[38],2.52 µM (inactive)
same,GI50,[58],> 100 µM (inactive)
same,GI50,[39],0.436 µM (active)
same,GI50,[41],5.94 µM
same,GI50,[42],7.6 µM (inactive)
same,GI50,[43],> 100 µM (inactive)
same,GI50,[44],1.64 µM (inactive)
same,GI50,[45],9.04 µM (inactive)
same,GI50,[46],4.4 µM (inactive)
same,GI50,[47],57.3 µM (inactive)

# — ChEMBL document CHEMBL1201862, “PubChem BioAssay data set” (2004)
